Measurements from patent US20260049076A1, “Tertiary Amine Substituted Bicyclic Compounds Useful as T Cell Activators” (BRISTOL-MYERS SQUIBB COMPANY, priority 2022, published 2026).
Each block holds one compound with its values, some of them ahead of it.

Assays:
[1] = target: T1, human DGKα (Homo sapiens, UniProt P23743); experiment: In vitro DGK inhibition assay, DGKα liposome (LIPGLO) assay; assay type: biochemical; conditions: read-out: Enzyme Inhibition DGKalpha IC50
T1 construct: TVMV protease cleavage site (C); Hexa-His (C); made in house; host or cells: Sf9 insect cells (baculovirus)
Method: (§1) The DGKα and DGKζ reactions were performed using either extruded liposome (DGKα and DGKζ LIPGLO assays) or detergent/lipid micelle substrate (DGKα and DGKζ assays). The reactions were carried out in 50 mM MOPS pH 7.5, 100 mM NaCl, 10 mM MgCl2, 1 μM CaCl2, and 1 mM DTT (assay buffer). The reactions using a detergent/lipid micelle substrate also contained 50 mM octyl B-D-glucopyranoside. The lipid substrate concentrations were 11 mM PS and 1 mM DAG for the detergent/lipid micelle reactions. The lipid substrate concentrations were 2 mM PS, 0.25 mM DAG, and 2.75 mM PC for the extruded liposome reactions (5 mM total lipid). The reactions were carried out in 150 μM ATP The enzyme concentrations for the DGKα and DGKζ were 5 nM
(§2) The compound inhibition studies were carried out as follows: 25 nL (ADPGLO assay) or 50 nL (LIPGLO assay) droplets of each test compound (top concentration 10 mM with 11 point, 3-fold dilution series for each compound) solubilized in DMSO were transferred to wells of a white 1536 well plate (Corning 3725). A 5 mL enzyme/lipid substrate solution at 2× final reaction concentration was prepared by combining 2.5 mL 4× enzyme solution (20 nM DGKα, or DGKζ (prepared as described below) in assay buffer) and 2.5 mL of either 4× liposome or 4× detergent/lipid micelle solution (compositions described below) and incubated at room temperature for 10 minutes. Next, 1 μL 2× enzyme/lipid substrate solution was added to wells containing the test compound and reactions were initiated with the addition of 1 μL 300 uM ATP. The reactions were allowed to proceed for 2 hr (ADPGLO assay) or 1 hr (LIPGLO assay), after which 2 μL Glo Reagent (Promega V9101) was added and incubated for 40 minutes. Next, 4 μL Kinase Detection Reagent was added and incubated for 30 minutes. Luminescence was recorded using an EnVision microplate reader. […] The compounds were evaluated at 11 concentrations to determine IC50.
(§3) The lipid composition was 5 mol % DAG (Avanti 8008110), 40 mol % PS (Avanti 840035P), and 55 mol % PC (Avanti 850457) at a total lipid concentration of 7-8 mg/mL for the liposome solution. The PC, DAG, and PS were dissolved in chloroform, combined, and dried in vacuo to a thin film. The lipids were hydrated to 20 mM in 50 mM MOPS pH 7.5, 100 mM NaCl, 5 mM MgCl2, and were freeze-thawed five times. The lipid suspension was extruded through a 100 nm polycarbonate filter 10-12 times. […] The liposome preparation was stored at 4° C. for as long as four weeks.
as §3, with “15.2” for “7-8”, “the 4×” for “the”, “eleven” for “10-12”
(§4) Human DGK-alpha-TVMV-His-pFBgate and human DGK-zeta-transcript variant-2-TVMV-His-pFBgate baculovirus samples were generated using the Bac-to-Bac baculovirus expression system (Invitrogen) according to the manufacturer's protocol. […] Baculovirus amplification was achieved using infected Sf9 cells at 1:1500 virus/cell ratios, and grown for 65 hours at 27° C. post-transfection.
(§5) The expression scale up for each protein was carried out in the Cellbag 50L WAVE-Bioreactor System 20/50 from GE Healthcare Bioscience. 12 L of 2×10^6 cells/mL Sf9 cells (Expression System, Davis, CA) grown in ESF921 insect medium (Expression System) were infected with virus stock at 1:200 virus/cell ratios, and grown for 66-68 hours at 27° C. post-infection.

[2] = target: T2, human DGKζ (Homo sapiens, UniProt Q13574); experiment: In vitro DGK inhibition assay, DGKζ liposome (LIPGLO) assay; assay type: biochemical; conditions: read-out: Enzyme Inhibition DGKzeta IC50
T2 construct: TVMV protease cleavage site (C); Hexa-His (C); made in house; host or cells: Sf9 insect cells (baculovirus)
Method: as §1, §2, §3
as §3, with “15.2” for “7-8”, “the 4×” for “the”, “eleven” for “10-12”
as §4, §5

T2 sequence (Q13574 with tags, fused parts or gaps isoform Q13574-4): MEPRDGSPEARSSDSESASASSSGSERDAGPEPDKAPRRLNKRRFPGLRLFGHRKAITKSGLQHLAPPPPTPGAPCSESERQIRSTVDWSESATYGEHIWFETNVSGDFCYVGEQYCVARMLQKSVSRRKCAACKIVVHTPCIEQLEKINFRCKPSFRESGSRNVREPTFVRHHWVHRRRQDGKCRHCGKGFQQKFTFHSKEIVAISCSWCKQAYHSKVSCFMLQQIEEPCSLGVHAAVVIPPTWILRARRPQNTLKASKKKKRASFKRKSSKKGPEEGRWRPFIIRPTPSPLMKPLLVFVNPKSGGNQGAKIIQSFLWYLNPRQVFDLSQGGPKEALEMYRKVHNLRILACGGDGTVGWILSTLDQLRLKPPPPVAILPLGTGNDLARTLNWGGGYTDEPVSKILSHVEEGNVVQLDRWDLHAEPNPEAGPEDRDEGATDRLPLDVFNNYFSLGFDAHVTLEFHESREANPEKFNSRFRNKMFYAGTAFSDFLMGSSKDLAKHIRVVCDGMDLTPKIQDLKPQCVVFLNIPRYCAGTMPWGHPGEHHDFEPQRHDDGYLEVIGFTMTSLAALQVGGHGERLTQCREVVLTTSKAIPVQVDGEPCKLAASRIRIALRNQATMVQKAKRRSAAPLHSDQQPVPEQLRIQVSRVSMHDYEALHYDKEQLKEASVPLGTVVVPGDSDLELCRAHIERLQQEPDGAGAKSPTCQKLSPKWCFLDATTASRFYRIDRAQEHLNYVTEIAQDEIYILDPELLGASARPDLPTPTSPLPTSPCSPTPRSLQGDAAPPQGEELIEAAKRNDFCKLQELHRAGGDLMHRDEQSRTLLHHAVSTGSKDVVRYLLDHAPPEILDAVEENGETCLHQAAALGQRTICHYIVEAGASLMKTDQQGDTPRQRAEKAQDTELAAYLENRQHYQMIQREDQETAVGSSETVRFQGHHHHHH
T1 sequence (P23743 with tags, fused parts or gaps): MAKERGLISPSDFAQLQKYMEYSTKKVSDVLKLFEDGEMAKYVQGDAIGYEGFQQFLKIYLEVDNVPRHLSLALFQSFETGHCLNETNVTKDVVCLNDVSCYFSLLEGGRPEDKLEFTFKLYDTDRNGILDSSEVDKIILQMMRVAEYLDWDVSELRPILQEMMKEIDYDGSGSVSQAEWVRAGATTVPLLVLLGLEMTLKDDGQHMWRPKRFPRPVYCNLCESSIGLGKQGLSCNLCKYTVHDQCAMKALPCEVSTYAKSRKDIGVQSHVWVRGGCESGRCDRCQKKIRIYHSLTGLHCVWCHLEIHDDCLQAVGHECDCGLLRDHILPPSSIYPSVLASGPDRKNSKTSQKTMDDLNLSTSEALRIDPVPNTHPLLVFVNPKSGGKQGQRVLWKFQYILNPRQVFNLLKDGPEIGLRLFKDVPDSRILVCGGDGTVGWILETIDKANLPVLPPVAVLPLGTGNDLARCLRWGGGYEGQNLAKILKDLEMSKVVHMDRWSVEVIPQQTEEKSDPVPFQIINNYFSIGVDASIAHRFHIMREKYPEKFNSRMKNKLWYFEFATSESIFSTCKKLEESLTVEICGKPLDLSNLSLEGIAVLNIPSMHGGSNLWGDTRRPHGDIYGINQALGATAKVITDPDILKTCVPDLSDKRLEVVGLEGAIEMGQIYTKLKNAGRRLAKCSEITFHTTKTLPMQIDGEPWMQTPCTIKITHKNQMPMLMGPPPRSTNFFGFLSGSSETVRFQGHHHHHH

IC50 [1]: 2.7 µM
IC50 [2]: 0.19 µM
SMILES: Cn1c(=O)cc(N(CC2CC2)c2ccc(C3CC3)cc2)c2nc(C#N)ccc21 [Example 40, 8-((cyclopropylmethyl)(4-cyclopropylphenyl)amino)-5-methyl-6-oxo-5,6-dihydro-1,5-naphthyridine-2-carbonitrile]

IC50 [1]: 12 µM
IC50 [2]: 7.3 µM
SMILES: COc1cc(-c2cccc(N(CC3CC3)c3cc(=O)n(C)c4ccc(C#N)nc34)c2)ccn1 [Example 110, 8-((cyclopropylmethyl)(3-(2-methoxypyridin-4-yl)phenyl)amino)-5-methyl-6-oxo-5,6-dihydro-1,5-naphthyridine-2-carbonitrile]

IC50 [1]: 3.8 µM
IC50 [2]: 2 µM
SMILES: CN(C)C(=O)c1ccc(-c2ccc(N(CC3CC3)c3cc(=O)n(C)c4ccc(C#N)nc34)cc2)cc1 [Example 82, 4′-((6-cyano-1-methyl-2-oxo-1,2-dihydro-1,5-naphthyridin-4-yl) (cyclopropylmethyl)amino)-N,N-dimethyl-[1,1′-biphenyl]-4-carboxamide]

IC50 [1]: 6.2 µM
IC50 [2]: 1.5 µM
SMILES: Cc1cccc(-c2ccc(N(CC3CC3)c3cc(=O)n(C)c4ccc(C#N)nc34)cc2)c1 [Example 74, 8-((cyclopropylmethyl)(3′-methyl-[1,1′-biphenyl]-4-yl)amino)-5-methyl-6-oxo-5,6-dihydro-1,5-naphthyridine-2-carbonitrile]

IC50 [1]: 0.14 µM
IC50 [2]: 15 µM
SMILES: Cn1c(=O)cc(N(CC2CC2)c2cccc(-c3ccc(Cl)cc3)c2)c2nc(C#N)ccc21 [Example 71, 8-((4′-chloro-[1,1′-biphenyl]-3-yl)(cyclopropylmethyl)amino)-5-methyl-6-oxo-5,6-dihydro-1,5-naphthyridine-2-carbonitrile]

IC50 [1]: 3.2 µM
IC50 [2]: 0.88 µM
SMILES: CN(C)C(=O)c1cccc(-c2ccc(N(CC3CC3)c3cc(=O)n(C)c4ccc(C#N)nc34)cc2)c1 [Example 88, 4′-((6-cyano-1-methyl-2-oxo-1,2-dihydro-1,5-naphthyridin-4-yl)(cyclopropylmethyl)amino)-N,N-dimethyl-[1,1′-biphenyl]-3-carboxamide]

IC50 [1]: 0.93 µM
IC50 [2]: 13 µM
SMILES: CN(C)C(=O)c1ccc(-c2cccc(N(CC3CC3)c3cc(=O)n(C)c4ccc(C#N)nc34)c2)cc1 [Example 101, 3′-((6-cyano-1-methyl-2-oxo-1,2-dihydro-1,5-naphthyridin-4-yl)(cyclopropylmethyl)amino)-N,N-dimethyl-[1,1′-biphenyl]-4-carboxamide]

IC50 [1]: 5.6 µM
IC50 [2]: 4 µM
SMILES: Cn1c(=O)cc(N(CC2CC2)c2ccc(-c3cccc(CNS(C)(=O)=O)c3)cc2)c2nc(C#N)ccc21 [Example 85, N-((4′-((6-cyano-1-methyl-2-oxo-1,2-dihydro-1,5-naphthyridin-4-yl) (cyclopropylmethyl)amino)-[1,1′-biphenyl]-3-yl)methyl)methanesulfonamide]

IC50 [1]: 9.5 µM
IC50 [2]: 4 µM
SMILES: COc1cccc(-c2ccc(N(CC3CC3)c3cc(=O)n(C)c4ccc(C#N)nc34)cc2)c1 [Example 77, 8-((cyclopropylmethyl)(3′-methoxy-[1,1′-biphenyl]-4-yl)amino)-5-methyl-6-oxo-5,6-dihydro-1,5-naphthyridine-2-carbonitrile]

IC50 [1]: 2.5 µM
IC50 [2]: 9.1 µM
SMILES: Cn1c(=O)cc(N(CC2CC2)c2cccc(-c3cccc(Cl)c3)c2)c2nc(C#N)ccc21 [Example 94, 8-((3′-chloro-[1,1′-biphenyl]-3-yl) (cyclopropylmethyl)amino)-5-methyl-6-oxo-5,6-dihydro-1,5-naphthyridine-2-carbonitrile]

IC50 [1]: 12 µM
IC50 [2]: 5 µM
SMILES: COc1cc(-c2ccc(N(CC3CC3)c3cc(=O)n(C)c4ccc(C#N)nc34)cc2)ccn1 [Example 90, 8-((cyclopropylmethyl)(4-(2-methoxypyridin-4-yl)phenyl)amino)-5-methyl-6-oxo-5,6-dihydro-1,5-naphthyridine-2-carbonitrile]

The remaining lines, values behind:

SMILES: CN(c1ccc(Cl)cc1)c1cc(=O)n(C)c2ccc(C#N)nc12 [Example 29, 8-((4-chlorophenyl)(methyl)amino)-5-methyl-6-oxo-5,6-dihydro-1,5-naphthyridine-2-carbonitrile]
IC50 [1]: 0.45 µM
IC50 [2]: 17 µM

SMILES: COc1ccc(-c2cccc(N(C)c3cc(=O)n(C)c4ccc(C#N)nc34)c2)cc1 [Example 5, 8-((4′-methoxy-[1,1′-biphenyl]-3-yl)(methyl)amino)-5-methyl-6-oxo-5,6-dihydro-1,5-naphthyridine-2-carbonitrile]
IC50 [1]: 0.18 µM
IC50 [2]: 32 µM

SMILES: Cn1c(=O)cc(N(CC2CC2)c2cccc(C(F)(F)F)c2)c2nc(C#N)ccc21 [Example 47, 8-((cyclopropylmethyl)(3-(trifluoromethyl)phenyl)amino)-5-methyl-6-oxo-5,6-dihydro-1,5-naphthyridine-2-carbonitrile]
IC50 [1]: 0.2 µM
IC50 [2]: 5.1 µM

SMILES: Cn1c(=O)cc(N(CC2CC2)c2ccc(C(F)(F)F)cc2)c2nc(C#N)ccc21 [Example 42, 8-((cyclopropylmethyl)(4-(trifluoromethyl)phenyl)amino)-5-methyl-6-oxo-5,6-dihydro-1,5-naphthyridine-2-carbonitrile]
IC50 [1]: 4.4 µM
IC50 [2]: 1.1 µM

SMILES: Cn1c(=O)cc(N(Cc2ccccc2)CC2CC2)c2nc(C#N)ccc21 [Example 52, 8-(benzyl(cyclopropylmethyl)amino)-5-methyl-6-oxo-5,6-dihydro-1,5-naphthyridine-2-carbonitrile]
IC50 [1]: 4.5 µM
IC50 [2]: 12 µM

SMILES: Cc1ccccc1N(C)c1cc(=O)n(C)c2ccc(C#N)nc12 [Example 26, 5-methyl-8-(methyl(o-tolyl)amino)-6-oxo-5,6-dihydro-1,5-naphthyridine-2-carbonitrile]
IC50 [1]: 0.96 µM
IC50 [2]: 37 µM

SMILES: COc1cc(N(CC2CC2)c2cc(=O)n(C)c3ccc(C#N)nc23)ccc1F [Example 55, 8-((cyclopropylmethyl)(4-fluoro-3-methoxyphenyl)amino)-5-methyl-6-oxo-5,6-dihydro-1,5-naphthyridine-2-carbonitrile]
IC50 [1]: 7.7 µM
IC50 [2]: 2.2 µM

SMILES: CC(C1CC1)N(C)c1cc(=O)n(C)c2ccc(C#N)nc12 (racemic) [Example 32, 8-((1-cyclopropylethyl)(methyl)amino)-5-methyl-6-oxo-5,6-dihydro-1,5-naphthyridine-2-carbonitrile]
IC50 [1]: 1.4 µM
IC50 [2]: 90 µM

SMILES: CN(c1ccc(F)cc1)c1cc(=O)n(C)c2ccc(C#N)nc12 [Example 23, 8-((4-fluorophenyl)(methyl)amino)-5-methyl-6-oxo-5,6-dihydro-1,5-naphthyridine-2-carbonitrile]
IC50 [1]: 0.11 µM
IC50 [2]: 4.9 µM

SMILES: Cc1ccc2c(n1)c(N(C)C1CCCCC1)c(C#N)c(=O)n2C [Example 13, 4-[cyclohexyl(methyl)amino]-1,6-dimethyl-2-oxo-1,2-dihydro-1,5-naphthyridine-3-carbonitrile]
IC50 [1]: 0.29 µM
IC50 [2]: 2.7 µM

SMILES: CN(c1cccc(-c2ccc(OC(F)(F)F)cc2)c1)c1nc(=O)n(C)c2ccc(C#N)nc12 [Example 3, 1-methyl-4-(methyl(4′-(trifluoromethoxy)-[1,1′-biphenyl]-3-yl)amino)-2-oxo-1,2-dihydropyrido[3,2-d]pyrimidine-6-carbonitrile]
IC50 [1]: 1.8 µM
IC50 [2]: > 38 µM
